Results from patent US12696900B2, “Crop enhancement” (SYNGENTA CROP PROTECTION AG, priority 2020, dated 2026).

Key:
[1] = system: Corn seeds (var. NK Falkone); assay: Corn germination test (24 well plates, kinetic analysis of germination); format: in vivo; conditions: for Plateau of Germination (total percentage of germinated seeds), Sign. / Time taken to reach 50% germination of corn, Sign. / Uniformity of Germination (slope of the curve), Sign.: significance vs untreated, p<0.05, ns=not significant; for Plateau of Germination (total percentage of germinated seeds), total % of germinated seeds / Time taken to reach 50% germination of corn, Relative T50 / Uniformity of Germination (slope of the curve), Relative slope: untreated = 100
Method: Corn seeds (var. NK Falkone, Syngenta Seeds SAS, St. Sauveur, France) were sorted by size using a sieve to eliminate round seeds. The corn seeds were placed in 24 well plates (1 seed per well; each plate was considered as one experimental unit or replicate). Germination was initiated by the addition of 250 μl of distilled water containing 0.5% dimethyl sulfoxide (DMSO) to each well (with isocycloseram present at a concentration of either 1, 5, 25 or 125 μM). 8 replicates (i.e. 8 plates) were used for each treatment characterisation. The plates were sealed using seal foil (Polyolefin Art. Nr. 900320) from HJ-BIOANALYTIK. All plates were placed in a climatic chamber at either 15° C. or 23° C., with 60% Relative Humidity. The experiment was laid out in a completely randomized design. Germination was followed over time by taking photographs at different time points. Image analysis was performed automatically with a macro which was developed using the Image J software. A kinetic analysis of germination was carried out by fitting a trend curve. Three parameters were calculated from the trend curve: the T50 (time taken for 50% germination; related to speed of germination); the slope of the curve (the uniformity of germination) and the plateau (the total percentage of germinated seeds). […] The results are expressed in terms of percentage in comparison to the control (untreated seeds) for each temperature group respectively. The results were analysed statistically to highlight significant differences (p<0.05). (Key: Sign.=significance; ns=not significant)
All three parameters have a high agronomical relevance. Significant differences between treated seeds and untreated control are given at p<0.05 (Anova). T50 corresponds to the time needed for half of the seed population to germinate; lower values indicate faster germination. Slope indicates how synchronous the germination of the seed population is; values greater than 100 indicate a steeper curve. The steeper the curve, the better and more uniform the germination is. […] At the two highest rates, the speed of germination (T50) was faster at both temperatures, indicating a positive impact on germination speed.

[2] = system: Wheat seeds (winter wheat variety Syllon); assay: Wheat germination test under increased salinity (salt stress); format: in vivo; conditions: for Time taken to reach 50% germination of wheat, Sign. / Time taken to reach 50% germination of wheat, Relative T50: increased salinity, 12.5 mM NaCl solution, 23° C.; for Time taken to reach 50% germination of wheat, Sign.: significance vs untreated, p<0.05; for Time taken to reach 50% germination of wheat, Relative T50: untreated = 100
Method: Wheat seeds (winter wheat variety Syllon, Syngenta Seeds) were placed in 24 well plates (1 seed per well, each plate was considered as one experimental unit or replicate). […] Subsequently, a salt solution was prepared at this concentration and spiked with the test compound at different rates as shown below in Table 3, and the germination test was repeated under salt stress. Eight replicates (i.e. 8 plates) were used for each treatment. Plates were sealed with seal foil (Polyolefin Art. Nr. 900320) from HJ-BIOANALYTIK. All plates were placed in a climatic chamber at 23° C. with 70% Relative Humidity. The experiment was laid out in a completely randomized design. Germination was followed over time by taking photographs at different time points. Image analysis was performed automatically with a macro which was developed using the Image J software. A kinetic analysis of germination was carried out by fitting a trend curve. Three parameters were calculated from the trend curve: the T50 (time taken for 50% germination; speed of germination); the slope of the curve (the uniformity of germination) and the plateau (the total percentage of germinated seeds). […] The results are expressed in terms of percentage in comparison to the check (untreated seeds) and the results are analysed statistically to highlight significant differences (p<0.05). (Key: Sign.=significance)
T50 corresponds to the time needed for half of the seed population to germinate and is a germination parameter of high agronomical relevance. Significant differences between treated seeds and untreated control are given at p<0.05 (Anova). Lower values indicate faster germination.

[3] = 15° C. (cold conditions), isocycloseram 1 μM
[4] = 15° C. (cold conditions), isocycloseram 5 μM
[5] = 15° C. (cold conditions), isocycloseram 25 μM
[6] = 15° C. (cold conditions), isocycloseram 125 μM
[7] = 23° C. (normal conditions), isocycloseram 1 μM
[8] = 23° C. (normal conditions), isocycloseram 5 μM
[9] = 23° C. (normal conditions), isocycloseram 25 μM
[10] = 23° C. (normal conditions), isocycloseram 125 μM

CCN1OCC(NC(=O)c2ccc(C3=NOC(c4cc(Cl)c(F)c(Cl)c4)(C(F)(F)F)C3)cc2C)C1=O (stereo not shown) [Isocycloseram, isocycloseram]
Plateau of Germination (total percentage of germinated seeds), Sign. [1, 3]: ns
Time taken to reach 50% germination of corn, Sign. [1, 3]: ns
Uniformity of Germination (slope of the curve), Sign. [1, 3]: ns
Plateau of Germination (total percentage of germinated seeds), total % of germinated seeds [1, 3]: 103 percentage in comparison to the control
Time taken to reach 50% germination of corn, Relative T50 [1, 3]: 99.67 percentage in comparison to the control
Uniformity of Germination (slope of the curve), Relative slope [1, 3]: 100 percentage in comparison to the control
Plateau of Germination (total percentage of germinated seeds), Sign. [1, 4]: higher
Time taken to reach 50% germination of corn, Sign. [1, 4]: ns
Uniformity of Germination (slope of the curve), Sign. [1, 4]: ns
Plateau of Germination (total percentage of germinated seeds), total % of germinated seeds [1, 4]: 105 percentage in comparison to the control
Time taken to reach 50% germination of corn, Relative T50 [1, 4]: 101.73 percentage in comparison to the control
Uniformity of Germination (slope of the curve), Relative slope [1, 4]: 98 percentage in comparison to the control
Plateau of Germination (total percentage of germinated seeds), Sign. [1, 5]: higher
Time taken to reach 50% germination of corn, Sign. [1, 5]: Faster
Uniformity of Germination (slope of the curve), Sign. [1, 5]: more
Plateau of Germination (total percentage of germinated seeds), total % of germinated seeds [1, 5]: 106 percentage in comparison to the control
Time taken to reach 50% germination of corn, Relative T50 [1, 5]: 93.1 percentage in comparison to the control
Uniformity of Germination (slope of the curve), Relative slope [1, 5]: 233 percentage in comparison to the control
Plateau of Germination (total percentage of germinated seeds), Sign. [1, 6]: higher
Time taken to reach 50% germination of corn, Sign. [1, 6]: Faster
Uniformity of Germination (slope of the curve), Sign. [1, 6]: more
Plateau of Germination (total percentage of germinated seeds), total % of germinated seeds [1, 6]: 105 percentage in comparison to the control
Time taken to reach 50% germination of corn, Relative T50 [1, 6]: 90.61 percentage in comparison to the control
Uniformity of Germination (slope of the curve), Relative slope [1, 6]: 191 percentage in comparison to the control
Plateau of Germination (total percentage of germinated seeds), Sign. [1, 7]: ns
Time taken to reach 50% germination of corn, Sign. [1, 7]: Slower
Uniformity of Germination (slope of the curve), Sign. [1, 7]: less
Plateau of Germination (total percentage of germinated seeds), total % of germinated seeds [1, 7]: 103.63 percentage in comparison to the control
Time taken to reach 50% germination of corn, Relative T50 [1, 7]: 107.32 percentage in comparison to the control
Uniformity of Germination (slope of the curve), Relative slope [1, 7]: 80.22 percentage in comparison to the control
Plateau of Germination (total percentage of germinated seeds), Sign. [1, 8]: ns
Time taken to reach 50% germination of corn, Sign. [1, 8]: Slower
Uniformity of Germination (slope of the curve), Sign. [1, 8]: ns
Plateau of Germination (total percentage of germinated seeds), total % of germinated seeds [1, 8]: 103.63 percentage in comparison to the control
Time taken to reach 50% germination of corn, Relative T50 [1, 8]: 105.17 percentage in comparison to the control
Uniformity of Germination (slope of the curve), Relative slope [1, 8]: 93.8 percentage in comparison to the control
Plateau of Germination (total percentage of germinated seeds), Sign. [1, 9]: higher
Time taken to reach 50% germination of corn, Sign. [1, 9]: Faster
Uniformity of Germination (slope of the curve), Sign. [1, 9]: more
Plateau of Germination (total percentage of germinated seeds), total % of germinated seeds [1, 9]: 105.39 percentage in comparison to the control
Time taken to reach 50% germination of corn, Relative T50 [1, 9]: 95.22 percentage in comparison to the control
Uniformity of Germination (slope of the curve), Relative slope [1, 9]: 133.81 percentage in comparison to the control
Plateau of Germination (total percentage of germinated seeds), Sign. [1, 10]: ns
Time taken to reach 50% germination of corn, Sign. [1, 10]: Faster
Uniformity of Germination (slope of the curve), Sign. [1, 10]: more
Plateau of Germination (total percentage of germinated seeds), total % of germinated seeds [1, 10]: 100.7 percentage in comparison to the control
Time taken to reach 50% germination of corn, Relative T50 [1, 10]: 92.47 percentage in comparison to the control
Uniformity of Germination (slope of the curve), Relative slope [1, 10]: 176.64 percentage in comparison to the control
changes in germination rate and uniformity (corn) ([1]; isocycloseram 1, 5, 25 and 125 μM, 15° C. or 23° C., especially under the colder conditions and higher concentrations): significant changes in germination rate and uniformity
effect on corn seed germination kinetics ([1]; low temperature (15° C.)): consistent effect
effect on wheat seed germination kinetics ([2]; increased salinity (salt stress)): consistent effect
Time taken to reach 50% germination of wheat, Sign. ([2]; isocycloseram 1 μM): Faster
Time taken to reach 50% germination of wheat, Relative T50 ([2]; isocycloseram 1 μM): 95.27 percentage in comparison to the check
Time taken to reach 50% germination of wheat, Sign. ([2]; isocycloseram 5 μM): Faster
Time taken to reach 50% germination of wheat, Relative T50 ([2]; isocycloseram 5 μM): 94.70 percentage in comparison to the check
Time taken to reach 50% germination of wheat, Sign. ([2]; isocycloseram 25 μM): Faster
Time taken to reach 50% germination of wheat, Relative T50 ([2]; isocycloseram 25 μM): 93.07 percentage in comparison to the check
changes in germination speed (wheat) ([2]; isocycloseram 1, 5, and 25 μM, salt stress, 12.5 mM NaCl): significant changes in germination speed
